Data: paper PMC10762035, “Molecular basis of human trace amine-associated receptor 1 activation” (Nature Communications, 2024)
Substitutions are numbered along the chain they refer to. Values joined by “and” are separate entries in the source; they are usually repeats but may differ in a detail not shown here. Equal entries are not always repeated. Where two headings read alike, the source gives them in different places.

Columns and labels:
[1] = target: T1, hTA1 C178S (Homo sapiens, UniProt Q96RJ0, C178S); assay: GloSensor cAMP accumulation assay, C178S mutant; assay type: cell-based; conditions: log[Compound], single replicates
T1 construct: expressed in transfected cells; host or cells: HEK293T
T1 sequence (Q96RJ0 1-339 C178S): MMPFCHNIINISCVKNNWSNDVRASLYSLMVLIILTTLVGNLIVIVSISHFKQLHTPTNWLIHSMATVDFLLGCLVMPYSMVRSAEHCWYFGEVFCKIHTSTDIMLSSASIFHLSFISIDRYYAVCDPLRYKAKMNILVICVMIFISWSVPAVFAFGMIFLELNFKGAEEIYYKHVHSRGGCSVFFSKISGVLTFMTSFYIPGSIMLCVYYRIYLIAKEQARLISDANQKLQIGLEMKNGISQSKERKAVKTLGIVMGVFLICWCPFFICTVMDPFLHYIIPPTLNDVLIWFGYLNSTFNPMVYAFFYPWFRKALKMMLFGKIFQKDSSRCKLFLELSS

[2] = target: T2, hTA1 V184P (Homo sapiens, UniProt Q96RJ0, V184P); assay: GloSensor cAMP accumulation assay, V184P mutant; assay type: cell-based; conditions: for cAMP accumulation response, single replicate values (source data, Supplementary Figure 5): hTA1 V184P (N=2), log[Compound]
T2 construct: expressed in transfected cells; host or cells: HEK293T
T2 sequence (Q96RJ0 1-339 V184P): T1 sequence (Q96RJ0 1-339 C178S) with S178C, V184P

SMILES: NCCc1ccc(O)cc1 [TYR, tyramine]
- C178S - Normalized Luminescence Counts (N=2) ([1]; M = -7.522): 4.922 and 5.576 and 4.735 and 10.3511 and 8.496 and 10.8597
- C178S - Normalized Luminescence Counts (N=2) ([1]; M = -8): 0.8565 and 3.099 and 2.0247 and 3.141 and 5.295 and 4.428
- C178S - Normalized Luminescence Counts (N=2) ([1]; M = -8.522): -0.4052 and -0.03139 and 0.3892 and 0.9572 and 2.034 and 4.517
- C178S - Normalized Luminescence Counts (N=2) ([1]; M = -9): -1.013 and -1.2 and 0.1555 and -0.5985 and 0.02978 and 0.3589
- C178S - Normalized Luminescence Counts (N=2) ([1]; M = -9.522): -0.5454 and -1.1529 and -1.2 and -0.9575 and 1.615 and 1.376
- C178S - Normalized Luminescence Counts (N=2) ([1]; M = -10): -0.4052 and -0.07812 and -0.966 and 0.5982 and 1.645 and 1.346
- C178S - Normalized Luminescence Counts (N=2) ([1]; M = -10.522): -0.7791 and -0.3118 and -0.5921 and -2.214 and -0.2395 and -1.047
- C178S - Normalized Luminescence Counts (N=2) ([1]; M = -11): -0.8258 and -0.3585 and -1.106 and 0.08961 and 2.782 and 2.932
- C178S - Normalized Luminescence Counts (N=2) ([1]; M = -11.522): -0.1716 and 0.1555 and 0.1088 and 1.047 and 3.051 and 2.303
- C178S - Normalized Luminescence Counts (N=2) ([1]; M = -12): -0.9193 and -0.3118 and -0.6389 and 0.6281 and 2.423 and 2.214
- C178S - Normalized Luminescence Counts (N=2) ([1]; M = -12.522): 0.2023 and -0.07812 and -0.03139 and -1.077 and 1.944 and 2.603
- reduction in potency vs wild type ([2]; V184P): 4 fold
- EC50 ([2]; V184P, n=2, read-out: EC50): 1490 nM
- Emax ([2]; V184P, n=2, read-out: Span ± SEM (Emax normalized to β-PEA)): 105 ± 5.68%
- cAMP accumulation response, single replicate values (source data, Supplementary Figure 5) ([2]; M = -5): 66.7204 and 110.557 and 88.2354 and 80.832 and 102.751 and 95.962
- cAMP accumulation response, single replicate values (source data, Supplementary Figure 5) ([2]; M = -5.522): 68.2965 and 82.5176 and 84.3869 and 52.6087 and 59.3978 and 71.1332
- cAMP accumulation response, single replicate values (source data, Supplementary Figure 5) ([2]; M = -6): 47.9177 and 50.0802 and 42.1633 and 41.1642 and 31.9504 and 31.2715
- cAMP accumulation response, single replicate values (source data, Supplementary Figure 5) ([2]; M = -6.522): 19.512 and 25.4864 and 24.1669 and 21.0878 and 21.7667 and 21.1848
- cAMP accumulation response, single replicate values (source data, Supplementary Figure 5) ([2]; M = -7): 8.113 and 10.3856 and 10.972 and 5.085 and 4.018 and 3.436
- cAMP accumulation response, single replicate values (source data, Supplementary Figure 5) ([2]; M = -7.522): 1.736 and 1.149 and 1.113 and 1.69 (2×) and 1.5934
- cAMP accumulation response, single replicate values (source data, Supplementary Figure 5) ([2]; M = -8): 1.479 and 2.432 and 2.102 and -0.4433 and -0.3463 and 0.1386
- cAMP accumulation response, single replicate values (source data, Supplementary Figure 5) ([2]; M = -8.522): 0.0496 and 0.8926 and 2.065 and -0.3463 and 0.4296 and -0.05538
- cAMP accumulation response, single replicate values (source data, Supplementary Figure 5) ([2]; M = -9): -0.2803 and 1.809 and 0.9293 and -0.4433 and -0.2494 (2×)
- cAMP accumulation response, single replicate values (source data, Supplementary Figure 5) ([2]; M = -9.522): -0.3536 and -0.06036 and -0.6835 and -0.05538 (2×) and 0.04161
- cAMP accumulation response, single replicate values (source data, Supplementary Figure 5) ([2]; M = -10): 0.4894 and -0.09701 and -0.5368 and 0.04161 and -0.3463 and -0.05538
- cAMP accumulation response, single replicate values (source data, Supplementary Figure 5) ([2]; M = -10.522): -0.4269 and 0.4528 and -0.94 and 0.04161 and 0.5265 and -0.05538
- cAMP accumulation response, single replicate values (source data, Supplementary Figure 5) ([2]; M = -11): 0.1229 and 0.4528 and 0.0496 and -0.2494 and -0.4433 and 0.1386
- cAMP accumulation response, single replicate values (source data, Supplementary Figure 5) ([2]; M = -11.522): -0.2436 and 1.039 and -0.2803 and 0.04161 and 0.5265 and 0.3326
- cAMP accumulation response, single replicate values (source data, Supplementary Figure 5) ([2]; M = -12): -0.1337 and -0.5368 and -0.7568 and 0.1386 and 0.5265 (2×)
- cAMP accumulation response, single replicate values (source data, Supplementary Figure 5) ([2]; M = -12.522): 1.113 and 0.5994 and -0.5368 and 1.399 and 1.302 and 1.69
- EC50 ([2]; hTA1 V184P mutant, Figure 3B source data, each grid row a separate experiment, 3 replicates, read-out: pEC50 values (Mean) (converted)): 2180 nM and 1020 nM
- Emax values, Mean ([2]; hTA1 V184P mutant, β-PEA set to 100, each grid row a separate experiment, 3 replicates): 99.5188
- Emax ([2]; hTA1 V184P mutant, β-PEA set to 100, each grid row a separate experiment, 3 replicates, read-out: Emax values (Mean)): 111%
